{"source": "patent US8975078B2", "about": "“Method for expressing a mouse olfactory receptor Olfr15 on a cell membrane” (Panasonic Corporation, priority 2011, dated 2015)", "key": {"[1]": {"system": "mouse olfactory receptor Olfr15", "experiment": "Expression rate of mouse olfactory receptor Olfr15 on the cell membrane of transfected HEK293T cells (immunofluorescence)", "format": "cell-based"}, "HEK293T cells": {"system": "HEK293T cells", "experiment": "Cell viability rate of transfected HEK293T cells at the time of immunofluorescence", "format": "cell-based", "experimental": "The liquid culture medium containing HEK293T cells was added into a Petri dish. The HEK293T cells adhered spontaneously to the inner wall of the Petri dish.\nThe plasmid (RTP1S), the plasmid (Rho-myc-Olfr15), and a plasmid (purchased from Evrogen, trade name: pMkate2) coding for a membrane marker were added to the Petri dish, and the HEK293T cells were transfected with these three plasmids by a lipofection method. The liquid culture medium was maintained under an air atmosphere containing 5% CO2 under a temperature of 37 degrees Celsius. In this way, as shown in the uppermost part of FIG. 4, the vessel containing the transformed HEK293 cells and the liquid culture medium was prepared.\nTwenty four hours after the transfection, a liquid culture medium containing chlorpromazine was added into the vessel. […]\nSubsequently, the liquid culture medium was removed. Then, the liquid culture medium not containing chlorpromazine (see FIG. 2) was added to the vessel. Thus, the liquid culture medium was exchanged.\nFour hours after the exchange of the liquid culture medium, the distribution of the mouse olfactory receptor Olfr15 on the cell membrane was evaluated in accordance with the immunofluorescence technique disclosed in Non Patent Literature 2. For example, the expression rate on the cell membrane and the cell viability rate were calculated in accordance with the following formulas. (Expression rate on the cell membrane)=(fluorescence intensity on the cell membrane)/(fluorescence intensity of one entire cell) (Cell viability rate)=(the number of the living cells when the immunofluorescence technique was performed)/(the number of all the cells when the immunofluorescence technique was performed)\nFor example, the expression rate and the cell viability rate of not less than ten cells were calculated. Then, each of the average value of these rates was calculated. “Expression rate on the cell membrane” and “Cell viability rate” described in Table 3 are the average rates thereof."}, "[2]": {"settings": "chlorpromazine 5 μg/ml, immersion time 0.5 hour"}, "[3]": {"settings": "chlorpromazine 5 μg/ml, immersion time 1 hour"}, "[4]": {"settings": "chlorpromazine 5 μg/ml, immersion time 2 hour"}, "[5]": {"settings": "chlorpromazine 5 μg/ml, immersion time 4 hour"}, "[6]": {"settings": "chlorpromazine 5 μg/ml, immersion time 9 hour"}, "[7]": {"settings": "chlorpromazine 5 μg/ml, immersion time 20 hour"}, "[8]": {"settings": "chlorpromazine 10 μg/ml, immersion time 0.5 hour"}, "[9]": {"settings": "chlorpromazine 10 μg/ml, immersion time 1 hour"}, "[10]": {"settings": "chlorpromazine 10 μg/ml, immersion time 2 hour"}, "[11]": {"settings": "chlorpromazine 10 μg/ml, immersion time 4 hour"}, "[12]": {"settings": "chlorpromazine 10 μg/ml, immersion time 9 hour"}, "[13]": {"settings": "chlorpromazine 10 μg/ml, immersion time 20 hour"}, "[14]": {"settings": "chlorpromazine 25 μg/ml, immersion time 0.5 hour"}, "[15]": {"settings": "chlorpromazine 25 μg/ml, immersion time 1 hour"}, "[16]": {"settings": "chlorpromazine 25 μg/ml, immersion time 2 hour"}}}
{"smiles": "CN(C)CCCN1c2ccccc2Sc2ccc(Cl)cc21", "note": "[chlorpromazine]", "values": [{"measurement": "Expression rate on the cell membrane (%)", "setting": "[1]; Comparative Example 2: as Example 1 (chlorpromazine 25 μg/ml, 20 hour) but plasmid (RTP1S) not used", "result": 9.7, "unit": "%"}, {"measurement": "Expression rate on the cell membrane (%)", "setting": "[1]; [2]", "result": 11.8, "unit": "%"}, {"measurement": "Expression rate on the cell membrane (%)", "setting": "[1]; [3]", "result": 8.1, "unit": "%"}, {"measurement": "Expression rate on the cell membrane (%)", "setting": "[1]; [4]", "result": 12.3, "unit": "%"}, {"measurement": "Expression rate on the cell membrane (%)", "setting": "[1]; [5]", "result": 8.5, "unit": "%"}, {"measurement": "Expression rate on the cell membrane (%)", "setting": "[1]; [6]", "result": 11.5, "unit": "%"}, {"measurement": "Expression rate on the cell membrane (%)", "setting": "[1]; [7]", "result": 14.1, "unit": "%"}, {"measurement": "Expression rate on the cell membrane (%)", "setting": "[1]; [8]", "result": 9.6, "unit": "%"}, {"measurement": "Expression rate on the cell membrane (%)", "setting": "[1]; [9]", "result": 9.9, "unit": "%"}, {"measurement": "Expression rate on the cell membrane (%)", "setting": "[1]; [10]", "result": 19.7, "unit": "%"}, {"measurement": "Expression rate on the cell membrane (%)", "setting": "[1]; [11]", "result": 16.7, "unit": "%"}, {"measurement": "Expression rate on the cell membrane (%)", "setting": "[1]; [12]", "result": 17.4, "unit": "%"}, {"measurement": "Expression rate on the cell membrane (%)", "setting": "[1]; [13]", "result": 19.2, "unit": "%"}, {"measurement": "Expression rate on the cell membrane (%)", "setting": "[1]; [14]", "result": 15.1, "unit": "%"}, {"measurement": "Expression rate on the cell membrane (%)", "setting": "[1]; [15]", "result": 29.5, "unit": "%"}, {"measurement": "Expression rate on the cell membrane (%)", "setting": "[1]; [16]", "result": 24.0, "unit": "%"}, {"measurement": "Expression rate on the cell membrane (%)", "setting": "[1]; chlorpromazine 25 μg/ml, immersion time 20 hour, HEK293T with RTP1S and Rho-myc-Olfr15 plasmids, 4 h after medium exchange", "result": 28.4, "unit": "%"}, {"measurement": "expression rate of the olfactory receptor Olfr15 on the cell membrane (change when added)", "setting": "[1]; statement on Table 3, versus medium without chlorpromazine", "result": "increases"}, {"measurement": "Cell viability rate (%)", "setting": "HEK293T cells; [2]", "result": 81, "unit": "%"}, {"measurement": "Cell viability rate (%)", "setting": "HEK293T cells; [3]", "result": 88, "unit": "%"}, {"measurement": "Cell viability rate (%)", "setting": "HEK293T cells; [4]", "result": 89, "unit": "%"}, {"measurement": "Cell viability rate (%)", "setting": "HEK293T cells; [5]", "result": 82, "unit": "%"}, {"measurement": "Cell viability rate (%)", "setting": "HEK293T cells; [6]", "result": 79, "unit": "%"}, {"measurement": "Cell viability rate (%)", "setting": "HEK293T cells; [7]", "result": 68, "unit": "%"}, {"measurement": "Cell viability rate (%)", "setting": "HEK293T cells; [8]", "result": 89, "unit": "%"}, {"measurement": "Cell viability rate (%)", "setting": "HEK293T cells; [9]", "result": 82, "unit": "%"}, {"measurement": "Cell viability rate (%)", "setting": "HEK293T cells; [10]", "result": 84, "unit": "%"}, {"measurement": "Cell viability rate (%)", "setting": "HEK293T cells; [11]", "result": 81, "unit": "%"}, {"measurement": "Cell viability rate (%)", "setting": "HEK293T cells; [12]", "result": 41, "unit": "%"}, {"measurement": "Cell viability rate (%)", "setting": "HEK293T cells; [13]", "result": 50, "unit": "%"}, {"measurement": "Cell viability rate (%)", "setting": "HEK293T cells; [14]", "result": 89, "unit": "%"}, {"measurement": "Cell viability rate (%)", "setting": "HEK293T cells; [15]", "result": 55, "unit": "%"}, {"measurement": "Cell viability rate (%)", "setting": "HEK293T cells; [16]", "result": 41, "unit": "%"}, {"measurement": "Cell viability rate (%)", "setting": "HEK293T cells; chlorpromazine 25 μg/ml, immersion time 20 hour", "result": 11, "unit": "%"}]}
{"smiles": "OC[C@H]1O[C@@](CO)(O[C@H]2O[C@H](CO)[C@@H](O)[C@H](O)[C@H]2O)[C@@H](O)[C@@H]1O", "note": "[sucrose]", "values": [{"measurement": "Expression rate on the cell membrane (%)", "setting": "[1]; Comparative Example 4: sucrose 250 mM instead of chlorpromazine, otherwise as Example 1", "result": 12.5, "unit": "%"}]}
